# Source: patent publication US7172879B2, “Detection of sphingosine kinase activity and sphingosine kinase agonist or antagonist activity” (Johnson & Johnson Pharmaceutical Research & Development LLP, priority 1997, dated 2007)
# Columns and labels:
# Type in all cases: cell-based, human
# VCAM-1 = assay: Cell-surface expression of VCAM-1 by HUVECs, flow cytometry
# Description: (§1) Confluent monolayers of HUVECs were preincubated with or without HDL that was isolated as the fraction of density 1.13˜1.21 g/ml from human plasma at a concentration of 1 mg/ml of apoA-1. After 16-h preincubation, the cells were treated with TNFα (100 U/ml). Following 4-h treatment of TNFα, the cell-surface expression of VCAM-1 and E-selectin was measured by using flow cytometry.
# (§2) HUVECs were treated with an increasing concentration of C2-ceramide with or without TNF α(100 U/ml), or an increasing concentration of Sph-1-P for 4 h. The cell-surface expression of VCAM-1 or E-selectin was measured by flow cytometry. Effect of sphingosine kinase inhibitor (DMS) on the expression of VCAM-1 and E-selectin. The cells were treated with a vehicle (Nil), DMS (5 μM), Sph-1-P (5 μM), C2-ceramide (10 μM) or TNFα (100 U/ml) for 4 h, then measure VCAM-1 or E-selectin expression. Effect of agents on E-selectin mRNA levels and the comparison between the effect of HDL and DMS. After the indicated treatment for 4 h, E-selectin mRNA levels were measured by Northern blotting assay. Results shown in (D) are representative of three similar experiments.
# ERK = ERK activity in HUVECs, immunoprecipitation and MBP substrate; conditions: for stimulation of ERK activities: 30 min treatment
# Description: After the cells were treated with an agent for 30 min, ERK activities were assayed with […] basic protein (MBP) as substrate after immunoprecipitation with antibodies against p42/p44^MAPK (Berra et al. 1995; Li et al., 1996; Lee et al., 1997). The kinase reaction products were separated on 10% SDS-polyacrylamide gels. Bar graph depicting ERK activities were quantified by Phosphoimager. NF-κB binding activity was measured by electrophoretic mobility shift assay after 30 min treatment as indicated.
# E-selectin = assay: Cell-surface expression of E-selectin by HUVECs, flow cytometry
# Description: as §1, §2
# NF-κB = NF-κB binding activity in HUVEC nuclear extracts, electrophoretic mobility shift assay; conditions: HUVECs, 30 min treatment
# Description: After the cells were treated with an agent for 30 min, ERK activities were assayed with mycline basic protein (MBP) as substrate after immunoprecipitation with antibodies against p42/p44^MAPK (Berra et al. 1995; Li et al., 1996; Lee et al., 1997). The kinase reaction products were separated on 10% SDS-polyacrylamide gels. Bar graph depicting ERK activities were quantified by Phosphoimager. NF-κB binding activity was measured by electrophoretic mobility shift assay after 30 min treatment as indicated. The specific NF-κB binding complexes were identified by the super-shift gel assay with anti-p50 and anti-p65 antibodies and by competition analyses with the addition of a 50-fold molar excess of unlabelled NF-κB oligonucleotides.
# To measure the NF-κB binding activity, electrophoretic mobility-shift assays were performed. Nuclear extracts were prepared from HUVECs treated for 30 min with vehicle or the indicated agents. The double-stranded oligonucleotides used as a probe in these experiements included 5′-[…]-3′ (SEQ ID NO: 1) which contains a consensus NF-κB binding site in E-selection promoter that is underlined. Gel mobility shift of a consensus NF-κB oligonucleotide was performed by incubating ^32P-labelled NF-κB probe with […] of nuclear proteins. The Sph-1-P induced formation of NF-κB specific complexes were similar us that induced by TNFα. […]
# Sph-1-P formation = Sph-1-P formation in permeabilized HUVECs; conditions: endothelial cells; same concentration of DMS (5 μM)
# Description: (§3) HUVECs were labelled with [^3H]sphingomyelin was measured at the desired time point of TNFα treatment. The unlabelled cells were treated with HDL and/or TNFα as indicated, cells were lysed to measure ceramide levels and sphingosine kinase activity, respectively. The cells were permeabilized to measure the production of Sph-1-P in vivo.
# (§4) To measure sphingomyelin, the HUVECs were labeled with [^3H]serine (5 μCi/ml) for 48 h and preincubated with or without HDL for another 6 h. The cells were then washed three times and incubated for additional 2 h in the presence or absence of HDL. […] Sphingomyelin spots were visualized by fluorography, quantitated by scintillation spectrometry, and normalized by radioactivity recovered in total cellular lipids. […] To measure ceramide levels, cellular ceramide was extracted and quantified with the diacylglycerol kinase reaction (Kolesnick, 1991; Hannun & Bell, 1993). Sphingosine kinase activity was measured in vitro as previously described with some modification (Mattie et al., 1994; Ghosh et al., 1994; Choi et al., 1996). […] Sphingosine kinase activity was measured by incubating the supernatant with […] sphingosine-BSA complex and [γ^32P]ATP (1 mM, 5 μCi/ml) for 15 min at 37° C. […] Radioactivity of the spot corresponding to Sph-1-P was quantified using Phosphoimager system. […]
# sphingosine kinase = assay: Sphingosine kinase activity in cytosolic fractions of treated HUVECs
# Description: as §3, §4
# E-selectin mRNA = E-selectin mRNA levels in HUVECs, Northern blotting; conditions: 4 h treatment
# Description: as §2
# Total RNA was prepared from HUVECs that was treated with the indicated agents for 4 h. Equal aliquots of total RNA (12 μg) were electrophoresed in a 1% formaldehyde gel and transferred to nylon membrane. The blots were hybridized with α^=P-labeled E-selection cDNA probe. The mRNA levels of E-selectin were quantified by Phosphoimager and normalised to radiolabeled GAPDH probe.
# ceramide = assay: Cellular ceramide levels in HUVECs, diacylglycerol kinase reaction; conditions: peak at 30 min after TNFα treatment
# Description: as §3, §4
# sphingomyelin = assay: Sphingomyelin hydrolysis in labelled HUVECs; conditions: within 30 min of TNFα stimulation
# Description: as §3, §4
# [1] = HUVECs, TNFα 100 U/ml, 4 h, flow cytometry
# [2] = at 51 μM, compared with 100 U/ml TNF-α
molecule,measurement,setting,value
CCCCCCCCCCCCC/C=C/[C@@H](O)[C@H](CO)NC(C)=O [C2-ceramide],inhibition of TNFα-induced expression of VCAM-1,VCAM-1; [1],> 60%
same,stimulation of ERK activities,ERK,did not
same,inhibition of TNFα-induced expression of E-selectin,E-selectin; [1],> 60%
"N,N-dimethylsphingosine [DMS]",inhibition of Sph-1-P induced activation of NF-κB,NF-κB,did not inhibit
same,effect on Sph-1-P induced adhesion protein expression (VCAM-1),"VCAM-1; HUVECs, Sph-1-P 5 μM, 4 h",did not prevent
same,inhibition of TNFα-activated ERK,"ERK; 30 min, p<0.02",50%
same,inhibition of Sph-1-P formation induced either by TNF-α or PMA,Sph-1-P formation,> 90%
same,effect on Sph-1-P induced adhesion protein expression (E-selectin),"E-selectin; HUVECs, Sph-1-P 5 μM, 4 h",did not prevent
same,inhibition of sphingosine kinase activity induced either by TNF-α or PMA,"sphingosine kinase; endothelial cells, same concentration of DMS (5 μM)",> 90%
"CCCCCCCCCCCCC/C=C/[C@@H](O)[C@@H](N)COP(=O)(O)O [Sph-1-P, sphingosine-1-phosphate]",induction of nuclear NF-κB accumulation,NF-κB,significant nuclear NF-κB accumulation
same,"induction of VCAM-1, level reached",VCAM-1; [2],approximately equivalent to 100 U/ml TNF-α
same,stimulation of ERK activities,ERK,approximately equipotent
same,"induction of E-selectin, level reached",E-selectin; [2],approximately equivalent to 100 U/ml TNF-α
same,induction of E-selectin mRNA,E-selectin mRNA,induction of E-selectin mRNA
TNFα,stimulation of ERK activities,ERK,approximately equipotent
same,increase of cellular ceramide levels,ceramide,approximately 2 fold
same,"cellular sphingomyelin content, % of control",sphingomyelin,40%
same,"cytosolic sphingosine kinase activity, maximum, % of basal","sphingosine kinase; HUVECs, within 5 min, p<0.01",165±13%
